# Assay results reported in ChEMBL document CHEMBL1153245, “A profile of the in vitro anti-tumor activity of imidazolium-based ionic liquids” (2010).
# What was measured:
# Format in all cases: functional
# SF-295 = test: Anticancer activity against human SF295 cells assessed cell growth at 10 uM after 48 hrs by sulforhodamine B assay relative to control
# HT-29 = test: Anticancer activity against human HT-29 cells assessed cell growth at 10 uM after 48 hrs by sulforhodamine B assay relative to control
# A498 = test: Anticancer activity against human A498 cells assessed cell growth at 10 uM after 48 hrs by sulforhodamine B assay relative to control
# CCRF-CEM = test: Anticancer activity against human CCRF-CEM cells assessed cell growth at 10 uM after 48 hrs by sulforhodamine B assay relative to control
# NCI-H23 = test: Anticancer activity against human NCI-H23 cells assessed cell growth at 10 uM after 48 hrs by sulforhodamine B assay relative to control
# MDA-MB-468 = test: Anticancer activity against human MDA-MB-468 cells assessed cell growth at 10 uM after 48 hrs by sulforhodamine B assay relative to control
# UACC-62 = test: Anticancer activity against human UACC62 cells assessed cell growth at 10 uM after 48 hrs by sulforhodamine B assay relative to control
# CAKI-1 = test: Anticancer activity against human Caki1 cells assessed cell growth at 10 uM after 48 hrs by sulforhodamine B assay relative to control
# HCT-116 = test: Anticancer activity against human HCT116 cells assessed cell growth at 10 uM after 48 hrs by sulforhodamine B assay relative to control
# HL-60(TB) = test: Anticancer activity against human HL-60(TB) cells assessed cell growth at 10 uM after 48 hrs by sulforhodamine B assay relative to control
# PC-3 = test: Anticancer activity against human PC3 cells assessed cell growth at 10 uM after 48 hrs by sulforhodamine B assay relative to control
# SR = test: Anticancer activity against human SR cells assessed cell growth at 10 uM after 48 hrs by sulforhodamine B assay relative to control
# RXF 393 = test: Anticancer activity against human RXF393 cells assessed cell growth at 10 uM after 48 hrs by sulforhodamine B assay relative to control
# NCI-H322M = test: Anticancer activity against human NCI-H322M cells assessed cell growth at 10 uM after 48 hrs by sulforhodamine B assay relative to control
# SF-539 = test: Anticancer activity against human SF539 cells assessed cell growth at 10 uM after 48 hrs by sulforhodamine B assay relative to control
# SW-620 = test: Anticancer activity against human SW620 cells assessed cell growth at 10 uM after 48 hrs by sulforhodamine B assay relative to control
# COLO 205 = test: Anticancer activity against human COLO205 cells assessed cell growth at 10 uM after 48 hrs by sulforhodamine B assay relative to control
# SN12C = test: Anticancer activity against human SN12C cells assessed cell growth at 10 uM after 48 hrs by sulforhodamine B assay relative to control
# A549 = test: Anticancer activity against human A549 cells assessed cell growth at 10 uM after 48 hrs by sulforhodamine B assay relative to control
# MCF7 = test: Anticancer activity against human MCF7 cells assessed cell growth at 10 uM after 48 hrs by sulforhodamine B assay relative to control
# SK-MEL-28 = test: Anticancer activity against human SK-MEL-28 cells assessed cell growth at 10 uM after 48 hrs by sulforhodamine B assay relative to control
# UO-31 = test: Anticancer activity against human UO31 cells assessed cell growth at 10 uM after 48 hrs by sulforhodamine B assay relative to control
# OVCAR-4 = test: Anticancer activity against human OVCAR4 cells assessed cell growth at 10 uM after 48 hrs by sulforhodamine B assay relative to control
# MOLT-4 = test: Anticancer activity against human MOLT4 cells assessed cell growth at 10 uM after 48 hrs by sulforhodamine B assay relative to control
# DU-145 = test: Anticancer activity against human DU145 cells assessed cell growth at 10 uM after 48 hrs by sulforhodamine B assay relative to control
# BT-549 = test: Anticancer activity against human BT549 cells assessed cell growth at 10 uM after 48 hrs by sulforhodamine B assay relative to control
# [1] = Anticancer activity against human RPMI8266 cells assessed cell growth at 10 uM after 48 hrs by sulforhodamine B assay relative to control
# IGROV-1 = test: Anticancer activity against human IGROV1 cells assessed cell growth at 10 uM after 48 hrs by sulforhodamine B assay relative to control
# SNB-75 = test: Anticancer activity against human SNB75 cells assessed cell growth at 10 uM after 48 hrs by sulforhodamine B assay relative to control
# SK-OV-3 = test: Anticancer activity against human SKOV3 cells assessed cell growth at 10 uM after 48 hrs by sulforhodamine B assay relative to control
# Malme-3M = test: Anticancer activity against human MALME-3M cells assessed cell growth at 10 uM after 48 hrs by sulforhodamine B assay relative to control
# M14 = test: Anticancer activity against human M14 cells assessed cell growth at 10 uM after 48 hrs by sulforhodamine B assay relative to control
# OVCAR-3 = test: Anticancer activity against human OVCAR-3 cells assessed cell growth at 10 uM after 48 hrs by sulforhodamine B assay relative to control
# MDA-MB-435 = test: Anticancer activity against human MDA-MB-435 cells assessed cell growth at 10 uM after 48 hrs by sulforhodamine B assay relative to control
# OVCAR-8 = test: Anticancer activity against human OVCAR8 cells assessed cell growth at 10 uM after 48 hrs by sulforhodamine B assay relative to control
# SNB-19 = test: Anticancer activity against human SNB19 cells assessed cell growth at 10 uM after 48 hrs by sulforhodamine B assay relative to control
# T47D = test: Anticancer activity against human T47D cells assessed cell growth at 10 uM after 48 hrs by sulforhodamine B assay relative to control
# NCI-H522 = test: Anticancer activity against human NCI-H522 cells assessed cell growth at 10 uM after 48 hrs by sulforhodamine B assay relative to control
# U-251 = test: Anticancer activity against human U251 cells assessed cell growth at 10 uM after 48 hrs by sulforhodamine B assay relative to control
# HCC 2998 = test: Anticancer activity against human HCC2998 cells assessed cell growth at 10 uM after 48 hrs by sulforhodamine B assay relative to control
# LOX IMVI = test: Anticancer activity against human LOXIMVI cells assessed cell growth at 10 uM after 48 hrs by sulforhodamine B assay relative to control
# NCI/ADR-RES = test: Anticancer activity against human NCI/ADR-RES cells assessed cell growth at 10 uM after 48 hrs by sulforhodamine B assay relative to control
# KM12 = test: Anticancer activity against human KM12 cells assessed cell growth at 10 uM after 48 hrs by sulforhodamine B assay relative to control
compound,measurement,setting,value
CCCCCCCCCCCCCCCCCC[n+]1ccn(C)c1.O=S(=O)([N-]S(=O)(=O)C(F)(F)F)C(F)(F)F,Activity,SF-295,-21.51%
same,Activity,HT-29,-36.79%
same,Activity,A498,-44.9%
same,Activity,CCRF-CEM,67.84%
same,Activity,NCI-H23,-44.29%
same,Activity,MDA-MB-468,-20.4%
same,Activity,UACC-62,-82.14%
same,Activity,CAKI-1,-78.63%
same,Activity,HCT-116,-51.46%
same,Activity,HL-60(TB),2.22%
same,Activity,PC-3,-62.3%
same,Activity,SR,19%
same,Activity,RXF 393,-62.07%
same,Activity,NCI-H322M,6.16%
same,Activity,SF-539,-82.94%
same,Activity,SW-620,-38.1%
same,Activity,COLO 205,-47.26%
same,Activity,SN12C,-68.39%
same,Activity,A549,-47.24%
same,Activity,MCF7,6.12%
same,Activity,SK-MEL-28,-52.79%
same,Activity,UO-31,-66.09%
same,Activity,OVCAR-4,-13.29%
same,Activity,MOLT-4,9.25%
same,Activity,DU-145,-8.63%
same,Activity,BT-549,-54.97%
same,Activity,[1],75.58%
same,Activity,IGROV-1,-43.09%
same,Activity,SNB-75,-55.13%
same,Activity,SK-OV-3,-9.16%
same,Activity,Malme-3M,-49.87%
same,Activity,M14,-30.74%
same,Activity,OVCAR-3,-56.27%
same,Activity,MDA-MB-435,-70.83%
same,Activity,OVCAR-8,-37.35%
same,Activity,SNB-19,-68%
same,Activity,T47D,16.98%
same,Activity,NCI-H522,-74.3%
same,Activity,U-251,-63.9%
same,Activity,HCC 2998,-80.86%
same,Activity,LOX IMVI,-52.24%
same,Activity,NCI/ADR-RES,-7.98%
same,Activity,KM12,-61.9%
CCCCCCCCCCCCCCCCCC[n+]1ccn(C)c1.[Cl-],Activity,SF-295,-10.43%
same,Activity,HT-29,-42.14%
same,Activity,A498,-50.94%
same,Activity,CCRF-CEM,34.04%
same,Activity,NCI-H23,-48.94%
same,Activity,MDA-MB-468,-42.33%
same,Activity,UACC-62,-70.86%
same,Activity,CAKI-1,-67.34%
same,Activity,HCT-116,-18.25%
same,Activity,HL-60(TB),3.76%
same,Activity,PC-3,-54.01%
same,Activity,SR,4.33%
same,Activity,RXF 393,-28.27%
same,Activity,NCI-H322M,5.3%
same,Activity,SF-539,-85.24%
same,Activity,SW-620,-45.24%
same,Activity,COLO 205,1.82%
same,Activity,SN12C,-52.54%
same,Activity,A549,-15.21%
same,Activity,MCF7,-33.81%
same,Activity,SK-MEL-28,-49.38%
same,Activity,UO-31,-61.43%
same,Activity,OVCAR-4,-19.32%
same,Activity,MOLT-4,16.78%
same,Activity,DU-145,-7.74%
same,Activity,BT-549,-55.64%
same,Activity,[1],93.78%
same,Activity,IGROV-1,-43.92%
same,Activity,SNB-75,-74.36%
same,Activity,SK-OV-3,4.83%
same,Activity,Malme-3M,-62.43%
same,Activity,M14,-33.7%
same,Activity,OVCAR-3,-48.71%
same,Activity,MDA-MB-435,-56.4%
same,Activity,OVCAR-8,-20.19%
same,Activity,SNB-19,-47.53%
same,Activity,T47D,35.89%
same,Activity,NCI-H522,-74.88%
same,Activity,U-251,-0.67%
same,Activity,HCC 2998,-80.71%
same,Activity,LOX IMVI,0.13%
same,Activity,NCI/ADR-RES,20.86%
same,Activity,KM12,-47.8%
Cn1cc[n+](CCO)c1.O=S(=O)([N-]S(=O)(=O)C(F)(F)F)C(F)(F)F,Activity,SF-295,128.56%
same,Activity,HT-29,112.28%
same,Activity,A498,79.55%
same,Activity,CCRF-CEM,72.37%
same,Activity,NCI-H23,93.17%
same,Activity,MDA-MB-468,108.29%
same,Activity,UACC-62,100.11%
same,Activity,CAKI-1,90.82%
same,Activity,HCT-116,100.02%
same,Activity,HL-60(TB),37.14%
same,Activity,PC-3,86.93%
same,Activity,SR,119.61%
same,Activity,RXF 393,95.99%
same,Activity,NCI-H322M,94.56%
same,Activity,SF-539,99.95%
same,Activity,SW-620,103.41%
same,Activity,COLO 205,132.21%
same,Activity,SN12C,96.7%
same,Activity,A549,99.55%
same,Activity,MCF7,105.11%
same,Activity,SK-MEL-28,125.37%
same,Activity,UO-31,80.89%
same,Activity,OVCAR-4,100.13%
same,Activity,MOLT-4,49.74%
same,Activity,DU-145,114.39%
same,Activity,BT-549,114.11%
same,Activity,[1],72.12%
same,Activity,IGROV-1,89%
same,Activity,SNB-75,79.94%
same,Activity,SK-OV-3,102.56%
same,Activity,Malme-3M,121.81%
same,Activity,M14,102.65%
same,Activity,OVCAR-3,120.42%
same,Activity,MDA-MB-435,116.12%
same,Activity,OVCAR-8,93.89%
same,Activity,SNB-19,93.36%
same,Activity,T47D,100.5%
same,Activity,NCI-H522,90.32%
same,Activity,U-251,91.58%
same,Activity,HCC 2998,94.14%
same,Activity,LOX IMVI,90.65%
same,Activity,NCI/ADR-RES,92.39%
same,Activity,KM12,107.33%
CCCCCCCCCCCC[n+]1ccn(C)c1.F[B-](F)(F)F,Activity,SF-295,34.1%
same,Activity,HT-29,24.82%
same,Activity,A498,35.81%
same,Activity,CCRF-CEM,96%
same,Activity,NCI-H23,23.04%
same,Activity,MDA-MB-468,-43.37%
same,Activity,UACC-62,40.33%
same,Activity,CAKI-1,30.59%
same,Activity,HCT-116,16.24%
same,Activity,HL-60(TB),50.79%
same,Activity,PC-3,74.38%
same,Activity,SR,100.03%
same,Activity,RXF 393,22.19%
same,Activity,NCI-H322M,67.4%
same,Activity,SF-539,35.07%
same,Activity,SW-620,54.63%
same,Activity,COLO 205,15.15%
same,Activity,SN12C,21.24%
same,Activity,A549,37.89%
same,Activity,MCF7,-1.79%
same,Activity,SK-MEL-28,62.65%
same,Activity,UO-31,68.16%
same,Activity,OVCAR-4,12.68%
same,Activity,MOLT-4,71.98%
same,Activity,DU-145,7.97%
same,Activity,BT-549,1.51%
same,Activity,[1],130.35%
same,Activity,IGROV-1,1.02%
same,Activity,SNB-75,3.39%
same,Activity,SK-OV-3,47.29%
same,Activity,Malme-3M,31.87%
same,Activity,M14,24.71%
same,Activity,OVCAR-3,55.26%
same,Activity,MDA-MB-435,20.42%
same,Activity,OVCAR-8,13.12%
same,Activity,SNB-19,39.2%
same,Activity,T47D,11.08%
same,Activity,NCI-H522,-10.37%
same,Activity,U-251,36.74%
same,Activity,HCC 2998,28.68%
same,Activity,LOX IMVI,35.51%
same,Activity,NCI/ADR-RES,76.53%
same,Activity,KM12,21.76%
